From patent US20090305960A1, “Melanocortin Receptor-Specific Peptides for Treatment of Obesity / 669” (Palatin Technologies, Inc, priority 2008, published 2009)
Where a SMILES comes first, the peptide text is derived from it. Bridges are numbered along the chain shown (N, C = ends). [ ]: non-standard residue; d: D form. The star is where a group is joined. Orn = NCCC[C@H](N)C(=O)O; Bn = c1ccc(C*)cc1

Columns and labels:
[1] = Induction of penile erection in male rats; type: in vivo, rat; settings: IV
Protocol: The ability of peptides of the present invention to induce penile erection (PE) in male rats were evaluated with selected peptides. Male Sprague-Dawley rats weighing 250-300 g were kept on a 12 hour on/off light cycle with food and water ad libitum. All behavioral studies were performed between 9 a.m. and 4 p.m. Groups of 6-8 rats were administered peptides at a variety of doses via an IV route. Immediately after treatment, rats were placed into individual polystyrene cages (27 cm long, 16 cm wide, and 25 cm high) for behavioral observation, typically by remote video monitoring. Rats are observed for one hour, and the number of yawns, grooming bouts and PEs are recorded in 10-minute bins.

[2] = Food intake and body weight change in rats; type: in vivo, rat; settings: for decrease in food consumption compared to control: rats
Protocol: Change in food intake and body weight was evaluated for selected peptides administered by intravenous (IV) or subcutaneous injection routes. Male Sprague-Dawley rats were obtained from Hilltop Lab Animals, Inc. (Scottsdale, Pa.) or other vendors. Animals were individually housed in conventional polystyrene hanging cages and maintained on a controlled 12 hour on/off light cycle. Water and pelleted food was provided ad libitum. The rats were dosed IV with vehicle or selected peptides (0.3 to 1.0 mg/kg), or dosed subcutaneously with vehicle or selected peptides (doses up to 30 mg/kg). The changes in body weight and food intake for the 24 hour period after dosing was determined. The changes in body weight and food intake for the 48 hour and 72 hour periods after dosing can also be measured to determine reversal of changes in body weight and food intake effects back to baseline levels.

hMC4-R = molecular target: T1, hMC4-R (Homo sapiens, UniProt P32245); test: Competitive binding assay using Eu-NDP-α-MSH, MC4-R
T1 construct: expressed in transfected cells; host or cells: HEK-293 (membrane homogenates)
T1 sequence (P32245 whole entry): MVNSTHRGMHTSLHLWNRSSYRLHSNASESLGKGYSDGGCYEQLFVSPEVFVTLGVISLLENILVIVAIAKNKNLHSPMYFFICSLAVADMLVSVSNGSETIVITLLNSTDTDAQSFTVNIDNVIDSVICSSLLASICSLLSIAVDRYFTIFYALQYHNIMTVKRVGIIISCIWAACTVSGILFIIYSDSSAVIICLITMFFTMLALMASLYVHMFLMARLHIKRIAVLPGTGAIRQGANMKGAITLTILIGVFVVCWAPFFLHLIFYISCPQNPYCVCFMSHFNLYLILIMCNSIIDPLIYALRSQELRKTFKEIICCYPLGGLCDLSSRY
Protocol: Competitive inhibition binding assays were performed using membrane homogenates prepared from HEK-293 cells that express recombinant hMC1-R, hMC3-R, hMC4-R, or hMC5-R. In the examples that follow, all MC1-R, MC3-R, MC4-R and MC5-R values are for human recombinant receptors. Assays were performed in 96 well GF/B Millipore multiscreen filtration plates (MAFB NOB10) pre-coated with 0.5% bovine serum albumin (Fraction V). Membrane homogenates were incubated with 0.1 nM [1^125]-NDP-α-MSH (Perkin Elmer) and increasing concentrations of test peptides of the present invention in buffer containing 25 mM HEPES buffer (pH 7.5) with 100 mM NaCl, 2 mM CaCl2, 2 mM MgCl2, 0.3 mM 1,10-phenanthroline, and 0.1% bovine serum albumin. After incubation for 90 minutes at 37° C., the assay mixture was filtered and the membranes washed with 1 mL of cold 1×PBS wash buffer per well. 35 μL of scintillation cocktail was added to each well and the plates counted on a Microbeta counter for 1 minute per well. Non-specific binding was measured by inhibition of binding of [I^125]-NDP-α-MSH in the presence of 1 μM NDP-α-MSH. Maximal specific binding (100%) was defined as the difference in radioactivity (cpm) bound to cell membranes in the absence and presence of 1 μM NDP-α-MSH. Radioactivity (cpm) obtained in the presence of test compounds was normalized with respect to 100% specific binding to determine the percent inhibition of [I^125]-NDP-α-MSH binding. Each assay was conducted in duplicate and actual mean values are described, with results less than 0% reported as 0%. Ki values for test peptides of the present invention were determined using Graph-Pad Prism® curve-fitting software.
Alternatively, a competitive inhibition binding assay was performed employing Eu-NDP-α-MSH (PerkinElmer Life Sciences catalog No. AD0225) with determination by time-resolved fluorometry (TRF) of the lanthanide chelate. In comparison studies with [I^125]-NDP-α-MSH, the same values, within experimental error ranges, were obtained for percent inhibition and Ki. Typically competition experiments to determine Ki values were conducted by incubating membrane homogenates prepared from HEK-293 cells that express recombinant hMC4-R with 9 different concentrations of test compounds of interest and 1 nM of Eu-NDP-α-MSH in a solution containing 25 mM HEPES buffer with 100 mM NaCl, 2 mM CaCl2, 2 mM MgCl2, 0.1% BSA, and 0.3 mM 1,10-phenanthroline. After incubation for 90 minutes at 37° C., the reaction was stopped by filtration over AcroWell 96-well filter plates (Pall Life Sciences). The filter plates were washed 4 times with 200 μL of ice-cold phosphate-buffered saline. DELFIA Enhancement solution (PerkinElmer Life Sciences) was added to each well. The plates were incubated on a shaker for 15 minutes and read at 340 nm excitation and 615 nm emission wavelengths. Each assay was conducted in duplicate and mean values were utilized. Ki values were determined by curve-fitting with Graph-Pad Prism® software using a one-site fixed-slope competition binding model.

hMC1-R = molecular target: T2, hMC1-R (Homo sapiens, UniProt Q01726); test: Competitive binding assay, MC1-R; settings: competitive studies using Eu-NDP-α-MSH / NDP-α-MSH
T2 construct: expressed in transfected cells; host or cells: HEK-293 (membrane homogenates)
T2 sequence (Q01726 whole entry): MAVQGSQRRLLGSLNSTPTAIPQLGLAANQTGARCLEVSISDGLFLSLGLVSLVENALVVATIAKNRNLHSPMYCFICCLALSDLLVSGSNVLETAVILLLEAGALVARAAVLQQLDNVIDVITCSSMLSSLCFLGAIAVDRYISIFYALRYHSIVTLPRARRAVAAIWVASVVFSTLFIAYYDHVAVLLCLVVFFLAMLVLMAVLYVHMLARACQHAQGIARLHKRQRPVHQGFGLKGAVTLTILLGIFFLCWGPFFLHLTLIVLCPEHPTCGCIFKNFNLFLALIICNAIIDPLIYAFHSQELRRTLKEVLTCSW
Protocol: Competitive inhibition binding assays were performed using membrane homogenates prepared from HEK-293 cells that express recombinant hMC1-R, hMC3-R, hMC4-R, or hMC5-R. In the examples that follow, all MC1-R, MC3-R, MC4-R and MC5-R values are for human recombinant receptors. Assays were performed in 96 well GF/B Millipore multiscreen filtration plates (MAFB NOB10) pre-coated with 0.5% bovine serum albumin (Fraction V). […] 35 μL of scintillation cocktail was added to each well and the plates counted on a Microbeta counter for 1 minute per well. […] Maximal specific binding (100%) was defined as the difference in radioactivity (cpm) bound to cell membranes in the absence and presence of 1 μM NDP-α-MSH. […] Ki values for test peptides of the present invention were determined using Graph-Pad Prism® curve-fitting software.
Alternatively, a competitive inhibition binding assay was performed employing Eu-NDP-α-MSH (PerkinElmer Life Sciences catalog No. AD0225) with determination by time-resolved fluorometry (TRF) of the lanthanide chelate. […] The plates were incubated on a shaker for 15 minutes and read at 340 nm excitation and 615 nm emission wavelengths. […] Ki values were determined by curve-fitting with Graph-Pad Prism® software using a one-site fixed-slope competition binding model.

[3] = rat feeding studies, overall finding in words

CC(=O)N[C@@H](CCCNC(=N)N)C(=O)N[C@H]1CCCNC(=O)CC[C@@H](C(=O)O)NC(=O)[C@H](Cc2c[nH]c3ccccc23)NC(=O)[C@H](CCCNC(=N)N)NC(=O)[C@@H](Cc2ccccc2)NC(=O)[C@H](COCc2ccccc2)NC1=O [Compound 7, Ac-Arg-cyclo(Orn-Ser(Bzl)-D-Phe-Arg-Trp-Glu)-OH] (Ac-R[Orn]S(Bn)[dF]RWE-OH; lactam 2-7)
average spontaneous erections per rat in one hour ([1]; 1 mg/kg): 1.429±0.69 spontaneous erections per rat in one hour | increase in observed spontaneous erections ([1]; in words): not found to result in a statistically significant increase | food intake [2, 3]: reduce food intake | rate of change in body weight [2, 3]: decrease the rate of change in body weight | decrease in food consumption compared to control ([2]; 0.3 mg/kg, 0-2 hour period): statistically significant | decrease in food consumption compared to control ([2]; 0.3 mg/kg, 0-4 hour period): statistically significant | decrease in food consumption compared to control ([2]; 0.3 mg/kg, 0-20 hour period): statistically significant | decrease in food consumption compared to control ([2]; 1 mg/kg, 0-4 hour period): statistically significant | decrease in food consumption compared to control ([2]; 1 mg/kg, 0-20 hour period): statistically significant | decrease in food consumption compared to control ([2]; 1 mg/kg, 4-20 hour period): statistically significant | Ki (hMC4-R; competitive studies using Eu-NDP-α-MSH / NDP-α-MSH, average of several studies, read-out: Ki value at MC4-R): 9 nM | selectivity for MC4-R (binding against MC1-R, MC3-R and MC4-R) (hMC4-R; in words): highly selective for MC4-R | Ki (hMC1-R): 2040 nM
